The record followed here is patent publication US20080027031A1, “Retinoids and Related Compounds for the Treatment of Neuroinflammatory Conditions, Diseases and Disorders” (KineMed, Inc., priority 2006, published 2008).

Assay [1] concerns microglia. Nature of the assay: Microglial proliferation in the EAE model of multiple sclerosis (2H2O labeling). Type of assay: in vivo, mouse. As to conditions: female C57BL/6 mice, MOG(35-55) immunization; isotretinoin 30 mg/kg/day i.p.; 7 days 2H2O labeling. As for the experimental part: FIG. 3 depicts the inhibition of Microglial Proliferation in the experimental autoimmune encephalomyelitis (EAE) model of neuroinflammation. Female c57bl/6 mice were labeled with ^2H2O for 7 days and received either sham or EAE immunizations. EAE was induced by subcutaneous injection of 100 μg synthetic MOG(35-55) peptide emulsified in 0.1 ml complete Freund's adjuvant on day 0. Pertussis toxin (400 ng) was injected intravenously on days 0 and 2. Minocycline (45 mg/kg, i.p.) was dissolved in saline and injected twice a day for the first 3 days, and once a day for the rest of the study. Accutane (30 mg/kg, i.p.) was dissolved in DMSO and injected once a day for the duration of the study. Data represent mean±SD of 5 animals per group. * Indicates significant difference (p<0.0001) between sham and EAE groups treated with vehicle, # indicates significant difference (p<0.0001) between vehicle and drug treated EAE groups. […]
Analysis of cell turnover: GC/MS analysis was used to measure ^2H incorporation from ^2H2O into the deoxyribose moiety of purine deoxyribonucleotides during de novo DNA synthesis. Genomic DNA from microglia was isolated using a DNEasy tissue kit (Qiagen, Valencia, Calif.), and processed and analyzed by GC/MS. […]

The subject of assay [2] is EAE mice. The assay can be described thus: Clinical scores for EAE symptoms in EAE induced by MOG peptide. The class given is in vivo, mouse.
Experimental: Female C57BL/6 mice were immunized with MOG35-55 (EAE mice). All mice were labeled with 8% 2H2O for 1 week and received daily treatment with either vehicle or isotretinoin (10 mg/kg/day, ip). […] Data represent mean±SEM of 8 mice per group.
EAE was induced by subcutaneous injection of 100 μg synthetic MOG(35-55) peptide (QCB, Hopkinton, Mass.), emulsified in 0.1 ml complete Freund's adjuvant (CFA; incomplete Freund's adjuvant containing 4 mg/ml heat-killed M. tuberculosis H37Ra; both from Difco/Becton Dickinson), on day 0. Pertussis toxin (400 ng; List Biological) was injected intravenously on days 0 and 2. Sham-immunized animals were injected with CFA and PBS. Labeling with ^2H2O and treatment with isotretinoin (30 mg/kg/day) was initiated on the day of immunization, drug t.
Accordingly, the effect of isotretinoin was assessed on clinical symptoms of EAE during chronic treatment.
Assay [3] concerns microglia. As to conditions: for LPS-induced microglial proliferation: female C57BL/6 mice, LPS 1 mg/kg i.p. days 1, 3, 5, isotretinoin 40 mg/kg i.p. daily for 7 days, p<0.0001 vs LPS-treated animals.
Experimental: Female c57bl/6 mice were labeled with ^2H2O for 7 days and injected with LPS (1 mg/kg, i.p.) on days 1, 3 and 5. Accutane (40 mg/kg, i.p.) was administered daily for the duration of the study. […] LPS (1 mg/kg) was given on days 1, 3, and 5 of treatment. Isotretinoin (40 mg/kg/day) and 8% ^2H2O label were given for 7 days commencing on Day 1.
Mice: All animal studies were carried out according to NIH guidelines for the care and use of laboratory animals and received prior approval by the KineMed internal animal care and use committee. 9-10 week old female C57/Bl6 mice (Taconic, Oxnard, Calif.) were housed in a climate controlled environment with a 12 hour light/dark cycle and were fed standard rodent chow and water ad libitum. For heavy water labeling, animals received a priming IP bolus of 35 ml/kg 0.9% NaCl in 99.9% ^2H2O and were maintained on 8% ^2H2O in drinking water until sacrifice.
To induce neuroinflammation, C57/Bl6 mice received 1 mg/kg E. coli LPS (L4391, Sigma Chemical, St Louis, Mo.; serotype 0111:B4; stock of 0.2 mgs/ml in PBS) IP on days 1, 3, and 5 of ^2H2O labeling and were sacrificed the morning of day 8. In order to minimize dilution of body water ^2H enrichment in animals due to the volume of injections, 5% ^2H2O solution was used as the vehicle for LPS. Isotretinoin (Sigma) was dissolved in DMSO and administered IP daily at 40 mg/kg, drug treatment was maintained throughout the labeling period.
Isolation and characterization of microglia: Anesthetized mice were transcardially perfused with ice-cold PBS (30 ml). Brains (without olfactory bulbs) were removed and kept in ice-cold PBS until processing. Tissue was passed once through a 1 mm mesh, and agitated in digestion buffer (12.5 ml of 150 mM NaCl, 5 mM KCl, 10 mM NaHCO3, 0.5 mM EDTA, 15 mM HEPES, 5 mM D-glucose, containing 0.5 mg/ml DNAse I [Roche] and 2.5 mg/ml trypsin [Sigma]) in a baffle flask for 25 minutes at 37° C. Trypsin was inactivated by the addition of 6.25 ml of media (1:1 Hams F10:DMEM, 10% FBS, 100,000 units/l penicillin G, 50 mg/l streptomycin sulfate, 2 mM L-glutamine). […]

Read-outs that look alike come from different tables or passages of the source.

Take `CC1=C(/C=C/C(C)=C/C=C/C(C)=C\C(=O)O)C(C)(C)CCC1` [isotretinoin, 13-cis-retinoic acid]: in assay [1], the “microglial proliferation in the EAE model” value is “dramatically inhibited”. For the same compound, the “delay of onset of clinical symptoms of EAE” value in assay [2] (MOG35-55 immunized mice, isotretinoin 10 mg/kg/day ip from the day before immunization, untreated onset 14 days PI) stood at 1 week. Further, the “severity of clinical symptoms (clinical score) of EAE” value in assay [2] (between day 18 and day 25 PI vs vehicle-treated EAE mice, p<0.05, isotretinoin 10 mg/kg/day ip) is recorded as “reduced the severity of clinical symptoms significantly”. Also, the LPS-induced microglial proliferation entry in assay [3] is “dramatically inhibited”; in assay [3] (listed as isotrentinoin) it was “Inhibits Microglial Proliferation”. In addition, the “suppression of proliferation of brain microglial cells under conditions of microglial stimulation” value in assay [3] (overview statement, compared with clinically established inhibitors of neuroinflammation, including minocycline and glucocorticoids) is “as potent”.
